Test results taken from patent EP0248151A1, “Pantothenic acid as an antimutagenic agent” (SUNTORY LIMITED, priority 1983, dated 1984).

What was measured:
[1] = system: Salmonella typhimurium TA l00; assay: Ames test (preincubation method), inactivation of mutagenicity of MNNG, without S9; type: cell-based
Protocol: (§1) One of the methods for determining carcinogenicity that have recently been established is the Salmonella test (also known as the Ames test) that uses the requirement for histidine as an evaluation index (Ames, B.N. et al.: Mutation Res., Vol. 3l, 347, l975). […] Therefore, the present inventors chose to use the Ames test as a means for screening various compounds to discover cancer control substances.
(§2) • (i) Method: The preincubation method shown in Sugimura & Nagao: Chemical Mutagens, Vol. 6, page 4l, l98l was used. • (ii) Microorganism: Histidine requiring Salmonella typhimurium strains TA l00 and TA 98 (hereunder TA l00 and St TA 98) were used. • (iii) Preparation of samples • a) MNNG: To MNNG samples (l µg/plate), coenzyme A was added in amounts of 0.0l µM, 0.l µM and l.0 µM/plate. • b) Benzo[a]pyrene: To benzo[a]pyrene samples (l0 µg/plate), coenzyme A was added in amounts of 0.0009, 0.009 and 0.09µM/plate. • (iv) Measuring mutagenicity
(§3) To l00 µl of each of the samples prepared in (iii) a), 500 µl of l00 mM sodium phosphate buffer (pH 7.4) and l00 µl of a culture of St TA l00 were added. To l00 µl of each of the samples prepared in (iii) b), 500 µl of S9 mix (rat liver homogenate) and l00 µl of a culture of TA 98 were added. […] After incubation at 37°C for 48 hours, the number of colonies on the plates was counted as revertants. […]

[2] = system: Salmonella typhimurium TA 98; assay: Ames test (preincubation method), inactivation of mutagenicity of benzo[a]pyrene, with S9 mix (rat liver homogenate); type: cell-based
Protocol: as §1, §2, §3

[3] = system: St TA l00 or St TA 98 strain; assay: Ames test (preincubation method), inactivation of mutagenicity of carcinogens/mutagens by pantothenates, without S9; type: cell-based, Salmonella typhimurium
Protocol: as §2
• (i) Method: See Example l. • (ii) Microorganism: See Example l. • (iii) Preparation of samples • a) The carcinogenic or mutagenic substances used in Example 3 and their concentrations are listed in Table 5. [formula] • b) Adding pantothenates (Na and Ca salts) Pantothenates were added to each of the carcinogenic or mutagenic samples in amounts of 0, 0.005, 0.05, and 5.0 µM/plate. • (iv) Measuring mutagenicity To l00 µl of each of the samples prepared in (iii) a), 500 µl of l00 mM sodium phosphate buffer (pH 7.4) was added. Thereafter, l00 µl of a culture of St TA l00 or St TA 98 strain was added as indicated in Table 6. [formula] The respective mixtures were shaken for 20 minutes at 37°C. After adding 2.5 ml of a soft agar solution, the mixtures were spread on minimum glucose agar plates which had been supplemented with 0.l µM/plate of histidine for causing several […] of the cells. After incubation at 37°C for 48 hours, the number of colonies on the plates was counted as revertants.

Compound: CC(C)(COP(=O)(O)OP(=O)(O)OC[C@H]1O[C@@H](n2cnc3c(N)ncnc32)[C@H](O)[C@@H]1OP(=O)(O)O)[C@@H](O)C(=O)NCCC(=O)NCCS [Coenzyme A, coenzyme A]
- inhibition of the mutagenicity of MNNG ([1]; 150 mols of coenzyme A added to 1 mol of MNNG): completely
- inactivation of the mutagenicity of benzo[a]pyrene ([2]; 10 mols of coenzyme A added to 1 mol of benzo[a]pyrene): about 90%

Compound: Cc1ncc(COP(=O)(O)O)c(C=O)c1O [Pyridoxal-5′-phosphoric acid, pyridoxal-5′-phosphoric acid]
- inhibition of the mutagenicity of MNNG ([1]; 150 mols of compound added to 1 mol of MNNG): about 50%
- inactivation of the mutagenicity of benzo[a]pyrene ([2]; 25 mols of compound added to 1 mol of benzo[a]pyrene): about 80%

Compound: CC(C)(CO)[C@@H](O)C(=O)NCCC(=O)[O-].[Na+] [Sodium pantothenate, sodium pantothenate]
- inactivation of the mutagenicity of methylglyoxal ([3]; 18 mols of sodium pantothenate added to 1 mol of methylglyoxal): 77%
- inactivation of the mutagenicity of adriamycin ([3]; 2273 mols of sodium pantothenate added to 1 mol of adriamycin): 59%
- inactivation of the mutagenicity of AF-2 ([3]; 6250 mols of sodium pantothenate added to 1 mol of AF-2): 58%

Compound: calcium pantothenate
- inactivation of the mutagenicity of MNU ([3]; 6 mols of calcium pantothenate added to 1 mol of MNU): completely
- inactivation of the mutagenicity of MNNG ([3]; 73 mols of calcium pantothenate added to 1 mol of MNNG): 48%
